Values quoted from earlier work, collected in patent US6391332B1, “Therapeutic micronutrient composition for severe trauma, burns and critical illness” (Baxter International, Inc., priority 2000, dated 2002).

Assays:
burn patients = details: 2-10 grams given during burn resuscitation
[1] = doses exceeding 40 grams a day
critically ill patients = details: glutamine supplementation, clinical trials

Which “vascular permeability and fluid requirements” value (burn patients) does the source give for `O=C1O[C@H]([C@@H](O)CO)C(O)=C1O` [ascorbic acid] here?
The value was “significantly decrease”.

For `N=C(N)NCCC[C@H](N)C(=O)O` [arginine, L-arginine], which toxicity [1] is on record?
The toxicity was “non-toxic”.

With `NC(=O)CC[C@H](N)C(=O)O` [glutamine, L-glutamine] as the compound, how does the infection rate (critically ill patients) read?
Its infection rate is “decreased infection rate”.
